Measurements from patent publication US10722436B2, “Topical compositions” (MARY KAY INC., priority 2015, dated 2020).
Where no end group is shown, it is not given here. The star is where a group is joined. Hexanoyl = CCCCCC(=O)*

What was measured:
B16-F1 melanocytes = test: B16 Pigmentation Assay (melanin secretion); assay type: cell-based, mouse; conditions: B16-F1 cells, 6 days
Experimental: Melanogenesis is the process by which melanocytes produce melanin, a naturally produced pigment that imparts color to skin, hair, and eyes. Inhibiting melanogenesis is beneficial to prevent skin darkening and lighten dark spots associated with aging. Melanogenesis in B16 cells was determined in the presence or absence of niacinamide by measuring melanin secretion. It was determined that niacinamide inhibits melanogenesis by 30%.
Melanogenesis was determined using B16-F1 melanocytes (ATCC), an immortalized mouse melanoma cell line. The endpoint of this assay was a spectrophotometric measurement of melanin production and cellular viability. B16-F1 melanocytes, were cultivated in standard DMEM growth medium with 10% fetal bovine serum (Mediatech) at 37° C. in 10% CO2 and then treated with or without niacinamide for 6 days. Following incubation, melanin secretion was measured by absorbance at 405 nm and cellular viability was quantified.

[1] = system: TNF-α production in keratinocytes; test: Inhibition of Tumor Necrosis Factor Alpha (ELISA, PMA-treated keratinocytes); assay type: cell-based, human; conditions: PMA 10 ng/ml, 6 hours
Experimental: TNF-α is the prototype ligand of the TNF superfamily. It is a pleiotropic cytokine that plays a central role in inflammation. Increase in its expression is associated with an up regulation in pro-inflammatory activity. The bioassay used to analyze the effect of oligopeptide-1 and Opuntia ficus-indica extract used a spectrophotometric measurement that reflects the presence of TNF-α and cellular viability. It was determined that oligopeptide-1 and Opuntia ficus-indica extract inhibits TNF-α production in keratinocytes by 40% and 50%.
Subconfluent normal human adult keratinocytes (Cascade Biologics) cultivated in EpiLife standard growth medium (Cascade Biologics) at 37° C. in 5% CO2, were treated with phorbol 12-myristate 13-acetate (PMA, 10 ng/ml, Sigma Chemical, #P1585-1MG) and either oligopeptide-1 or Opuntia ficus-indica extract (treated samples) or no additional treatment (untreated sample) for 6 hours. PMA causes a dramatic increase in TNF-α secretion which peaks at 6 hours after treatment. Following incubation, cell culture medium was collected and the amount of TNF-a secretion quantified using a sandwich enzyme linked immuno-sorbant assay (ELISA) from R&D Systems (#DTA00C).
Briefly, the ELISA assay employed the quantitative sandwich enzyme immunoassay technique whereby a monoclonal antibody specific for TNF-α was been pre-coated onto a microplate. […]

[2] = system: procollagen peptide production in human epidermal fibroblasts; test: Collagen Stimulation Assay (procollagen peptide ELISA); assay type: cell-based; conditions: 3 days
Experimental: Collagen is an extracellular matrix protein critical for skin structure. Increased synthesis of collagen helps improve skin firmness and elasticity. Collagen stimulation was determined using a sandwich enzyme linked immuno-sorbant assay (ELISA) from Takara (#MK101) by measuring production of procollagen peptide (a precursor to collagen) in human epidermal fibroblasts incubated in the presence or absence of oligopeptide-1 or Prunus mume extract. It was determined that oligopeptide-1 increased collagen stimulation by 20% and Prunus mume extract increased collagen stimulation by 71%.
Collagen stimulation can be monitored by a spectrophotometric measurement that reflects the presence of procollagen peptide and cellular viability. The assay employs the quantitative sandwich enzyme immunoassay technique whereby a monoclonal antibody specific for procollagen peptide has been pre-coated onto microplate wells. […] Following incubation, cell culture medium was collected (samples and controls) and the amount of procollagen peptide secretion was quantified using a sandwich enzyme linked immuno-sorbant assay (ELISA) from Takara (#MK101). […] The color development was stopped and the color development was measured at 450 nm by a microplate reader.

mushroom tyrosinase = test: Mushroom Tyrosinase Activity Assay; assay type: biochemical; conditions: substrate L-Dopa
Experimental: In mammalian cells, tyrosinase catalyzes two steps in the multi-step biosynthesis of melanin pigments from tyrosine (and from the polymerization of dopachrome). Tyrosinase is localized in melanocytes and produces melanin (aromatic quinone compounds) that imparts color to skin, hair, and eyes. The activity of tyrosinase on its substrate L-Dopa in the presence or absence of oligopeptide-1 was determined using a colorimetric mushroom tyrosinase activity assay. It was determined that oligopeptide-1 inhibits tyrosinase by 40%. Tyrosinase activity was assayed by measuring the ability of purified mushroom tyrosinase (Sigma) to oxidize its substrate, L-Dopa (Fisher), in the presence or absence of oligopeptide-1. Oxidation of L-DOPA by the tyrosinase produced a pigment that was evaluated by colorimetric plate reading at 490 nm. The percent inhibition of mushroom tyrosinase activity was calculated and compared to non-treated controls to determine the ability of test ingredients to inhibit the activity of purified enzyme. Test inhibition was compared with that of the known tyrosinase inhibitor kojic acid (Sigma).

[3] = system: elastin production in cultured human fibroblasts; test: Elastin Stimulation Assay; assay type: cell-based
Experimental: Elastin is a connective tissue protein that helps skin resume shape after stretching or contracting. Elastin is also an important load-bearing protein used in places where mechanical energy is required to be stored. Elastin is made by linking many soluble tropoelastin protein molecules, in a reaction catalyzed by lysyl oxidase. Elastin production was determined in cultured human fibroblasts incubated in the presence or absence of oligopeptide-1. It was determined that oligopeptide-1 increased elastin production by 23%.
Elastin secretion and elastin fibers were monitored by staining of cultured human fibroblasts using antibodies directed against elastin. Human fibroblasts were treated with or without oligopeptide-1. Following incubation, elastin content was measured using immunofluorescent antibodies directed against elastin.

Compound	inhibits melanogenesis by (B16-F1 melanocytes) [%]	Inhibition of Melanogenesis: Activity (B16-F1 melanocytes; negative = inhibition) [%]	inhibits TNF-α production in keratinocytes by [1] [%]	Inhibition of TNF-α: Activity ([1]; negative = inhibition) [%]	increased collagen stimulation by [2] [%]	Collagen Stimulation: Activity ([2]; positive = increase)	inhibits tyrosinase by (mushroom tyrosinase) [%]	Inhibition of Tyrosinase: Activity (mushroom tyrosinase; negative = inhibition) [%]	increased elastin production by [3] [%]	Elastin Production: Activity ([3]; positive = increase)
NC(=O)c1cccnc1 [Niacinamide, 3-Pyridinecarboxamide]	30	−30	–	–	–	–	–	–	–	–
caprooyl-Gly-His-Lys-Lys (Hexanoyl-GHKK) [Oligopeptide-1, modified tetrapeptide; Lucas Meyer, trade name ChroNOline]	–	–	40	−40	20	+20%	40	−40	23	+23%
